Experimental findings from US20220289679A1, “HETEROCYCLIC COMPOUND” (Takeda Pharmaceutical Company Limited, priority 2019, published 2022) are described below.

The assay concerns the target T1, human GCS (glucosylceramide synthase) (Homo sapiens, UniProt Q16739).
T1 construct: made in house; host or cells: Expi293F cells (transient expression; microsome fraction)
T1 sequence (Q16739 1-394): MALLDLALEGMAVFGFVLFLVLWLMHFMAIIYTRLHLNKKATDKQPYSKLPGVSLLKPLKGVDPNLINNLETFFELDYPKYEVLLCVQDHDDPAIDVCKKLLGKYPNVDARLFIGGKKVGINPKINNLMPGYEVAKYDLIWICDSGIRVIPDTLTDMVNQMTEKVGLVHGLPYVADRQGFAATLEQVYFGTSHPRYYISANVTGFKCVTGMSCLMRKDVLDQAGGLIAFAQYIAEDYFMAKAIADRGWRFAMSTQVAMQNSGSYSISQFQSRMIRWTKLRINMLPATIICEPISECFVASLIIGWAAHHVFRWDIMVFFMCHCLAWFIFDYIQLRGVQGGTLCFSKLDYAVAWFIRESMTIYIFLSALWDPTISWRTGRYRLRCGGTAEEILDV
The assay can be described thus: Glucosylceramide Synthase (GCS) Assay. The format is biochemical. As to conditions: test compound 10 μM; microsome fraction of Expi293F cells expressing human GCS; 1.7 μM UDP-glucose, 3 μM C8 ceramide; room temperature 60 min; C8 glucosylceramide by Rapidfire MS/MS; read-out: GCS enzyme inhibitory rate at 10 μM (%). The procedure: In enzyme assay, a microsome fraction obtained by transient expression by Expi293F™ cells (catalog number: A14527, Thermo Fisher Scientific) was used as a glucosylceramide synthase source. Liposomal C8 ceramide and UDP-glucose were used as substrates. For each substrate concentration, 1.7 μM UDP-glucose, which is equal to the Km value, and 3 μM C8 ceramide were used. After the enzymatic reaction, the analysis was performed with Rapidfire MS/MS (API-4000™, SCIEX), and C8 glucosylceramide was quantified to evaluate the inhibitory activity of the test compound against glucosylceramide synthase activity.
PcDNA3.3TOPO vector (catalog number: K830001, Thermo Fisher Scientific) into which the human GCS gene was inserted was introduced into Expi293F™ Cells (catalog number: A14527, Thermo Fisher Scientific) by using ExpiFectamine™ 293 Transfection Kit (catalog number: A14525, Thermo Fisher Scientific). The cultured cells were dissolved in D-PBS (catalog number: 048-29805, Fuji Film Wako Pure Chemical Industries, Ltd.) containing 1 mM PMSF, and the solution was allowed to stand on ice for 30 minutes, and then subjected to cell disruption (homogenized). The disruption solution was centrifuged at 10,000×g for 20 minutes at 4° C., and the obtained supernatant was centrifuged at 142,400×g for 60 minutes at 4° C. The obtained precipitate was resuspended in a D-PBS solution containing 1 mM PMSF, and homogenized again to prepare as a microsome fraction. Protein quantification was performed by the CBB method.
A 1 mM compound solution prepared by dissolving the test compound in DMSO was added to a 384-well plate by 100 nL so that the final concentration of the test compound was 10 μM. Next, a substrate solution consisting of 3.4 μM UDP-glucose and 6 μM C8 ceramide was added by 5 μL, followed by an enzyme solution consisting of a 25 μg/mL microsome fraction by 5 μL. C8 ceramide was prepared from liposomes composed of 15 mol % C8 ceramide and 85 mol % dioleoyl phosphatidylcholine (1,2-dioleoyl-sn-glycero-3-phosphocholine: DOPC). The enzymatic reaction was carried out in a solution consisting of 20 mM tris-hydrochloric acid buffer (pH 7.5), 0.01% Tween 20, 0.01% bovine serum albumin and 1 mM dithiothreitol at room temperature for 60 min. Then, a solution consisting of 75% isopropanol and 1% formic acid containing 0.25 μM N-Octadecanoyl-D35-psichosine (catalog number: 1914, Matreya) as an internal standard substance was added by 60 μL to stop the enzymatic reaction. 5 μL of the centrifugal supernatant of the obtained reaction product was analyzed by Rapidfire MS/MS (Agilent Technologies) using API-4000™ (SCIEX), and the C8 glucosylceramide was quantified to evaluate the inhibitory activity of the test compound against the glucosylceramide synthase activity. The inhibitory activity of the test compound was evaluated when the C8 glucosylceramide level in the enzyme-free solution was considered as 100% inhibitory and the enzyme activity of the DMSO group in the absence of the compound was considered as 0% inhibitory.
As for `O=C(Nc1ccc(OCC(F)(F)F)nc1)c1cccn(-c2ccc(F)cc2OCC(F)(F)F)c1=O` [Example 26, 1-[4-fluoro-2-(2,2,2-trifluoroethoxy)phenyl]-2-oxo-N-[6-(2,2,2-trifluoroethoxy)pyridin-3-yl]-1,2-dihydropyridine-3-carboxamide], the inhibition at 10 µM came to 100%. The value for `Cc1cc(C(=O)Nc2ccc(C(C)(C)O)cn2)c(=O)n(-c2ccccc2OCC(F)(F)F)n1` [Example 130, N-[5-(2-hydroxypropan-2-yl)pyridin-2-yl]-6-methyl-3-oxo-2-[2-(2,2,2-trifluoroethoxy)phenyl]-2,3-dihydropyridazine-4-carboxamide] was 99%. To `O=C(Nc1ccc(CN2CCOCC2)cc1)c1cccn(-c2ccc(F)cc2OCC(F)(F)F)c1=O` [Example 35, 1-[4-fluoro-2-(2,2,2-trifluoroethoxy)phenyl]-N-{4-[(morpholin-4-yl)methyl]phenyl}-2-oxo-1,2-dihydropyridine-3-carboxamide] belongs 85%; to `Cn1cc(C(=O)Nc2ccc(C(O)(C(F)F)C(F)F)nc2)c(=O)c(-c2ccccc2OCC(F)F)n1` [Example 176, 6-[2-(2,2-difluoroethoxy)phenyl]-2-methyl-5-oxo-N-[6-(1,1,3,3-tetrafluoro-2-hydroxypropan-2-yl)pyridin-3-yl]-2,5-dihydropyridazine-4-carboxamide], 100%.

For `O=C(Nc1ccn(-c2ccc(F)cc2)n1)c1cccn(-c2ccccc2OCC(F)(F)F)c1=O` [Example 12, N-[1-(4-fluorophenyl)-1H-pyrazol-3-yl]-2-oxo-1-[2-(2,2,2-trifluoroethoxy)phenyl]-1,2-dihydropyridine-3-carboxamide], the inhibition at 10 µM came out at 97%. As for `CC(C)(O)c1ccc(NC(=O)c2ccnn(-c3ccccc3OCC(F)F)c2=O)c(F)c1` [Example 147, 2-[2-(2,2-difluoroethoxy)phenyl]-N-[2-fluoro-4-(2-hydroxypropan-2-yl)phenyl]-3-oxo-2,3-dihydropyridazine-4-carboxamide], the inhibition at 10 µM came to 100%. The value for `COc1ccccc1-n1c(C)ccc(C(=O)Nc2ccc(Oc3ccccc3)cc2)c1=O` [Example 1, 1-(2-methoxyphenyl)-6-methyl-2-oxo-N-(4-phenoxyphenyl)-1,2-dihydropyridine-3-carboxamide] was 71%; that for `Cn1cc(C(=O)Nc2ccc(C(C)(C)C#N)cc2)c(=O)c(-c2ccccc2OCC(F)F)n1` [Example 172, N-[4-(2-cyanopropan-2-yl)phenyl]-6-[2-(2,2-difluoroethoxy)phenyl]-2-methyl-5-oxo-2,5-dihydropyridazine-4-carboxamide] was 100%. `CC(C)(O)c1ccc(NC(=O)c2ccnn(-c3ccccc3OCC(F)(F)F)c2=O)c(F)c1` [Example 148, N-[2-fluoro-4-(2-hydroxypropan-2-yl)phenyl]-3-oxo-2-[2-(2,2,2-trifluoroethoxy)phenyl]-2,3-dihydropyridazine-4-carboxamide]: the inhibition at 10 µM came out at 100%. To `O=C(Nc1ccc(C(O)(C(F)F)C(F)F)nc1)c1cn(CC2COC2)nc(-c2ccccc2OCC(F)F)c1=O` [Example 188, 6-[2-(2,2-difluoroethoxy)phenyl]-2-[(oxetan-3-yl)methyl]-5-oxo-N-[6-(1,1,3,3-tetrafluoro-2-hydroxypropan-2-yl)pyridin-3-yl]-2,5-dihydropyridazine-4-carboxamide] belongs 99%; to `O=C(Nc1ccc(C(F)(F)F)nn1)c1cccn(-c2ccc(F)cc2OCC(F)(F)F)c1=O` [Example 38, 1-[4-fluoro-2-(2,2,2-trifluoroethoxy)phenyl]-2-oxo-N-[6-(trifluoromethyl)pyridazin-3-yl]-1,2-dihydropyridine-3-carboxamide], 97%; to `CC(C)(O)c1ccc(NC(=O)c2cccn(-c3cccnc3OCC(F)(F)F)c2=O)cn1` [Example 120, N-[6-(2-hydroxypropan-2-yl)pyridin-3-yl]-2-oxo-2′-(2,2,2-trifluoroethoxy)-2H-[1,3′-bipyridine]-3-carboxamide], 74%. On to `CC(C)(O)c1ccc(NC(=O)c2cccn(-c3ccc(F)cc3OCC(F)(F)C(F)(F)F)c2=O)cc1` [Example 58, 1-[4-fluoro-2-(2,2,3,3,3-pentafluoropropoxy)phenyl]-N-[4-(2-hydroxypropan-2-yl)phenyl]-2-oxo-1,2-dihydropyridine-3-carboxamide], for which the inhibition at 10 µM amounted to 99%.

As for `CC(C)(O)c1cc(C(=O)Nc2ccc(OC(F)F)cc2)c(=O)n(-c2ccccc2OCC(F)(F)F)n1` [Example 200, N-[4-(difluoromethoxy)phenyl]-6-(2-hydroxypropan-2-yl)-3-oxo-2-[2-(2,2,2-trifluoroethoxy)phenyl]-2,3-dihydropyridazine-4-carboxamide], the inhibition at 10 µM worked out at 99%. The value for `COc1cc(F)ccc1-n1cccc(C(=O)Nc2ccc(OC(F)(F)F)cc2)c1=O` [Example 6, 1-(4-fluoro-2-methoxyphenyl)-2-oxo-N-[4-(trifluoromethoxy)phenyl]-1,2-dihydropyridine-3-carboxamide] was 52%; that for `CC(C)(O)c1ccc(NC(=O)c2cn(C3COC3)nc(-c3ccccc3OCC(F)F)c2=O)cc1` [Example 183] was 100%; that for `COc1ccccc1-n1cccc(C(=O)Nc2ccc(Oc3ccccc3)cc2)c1=O` [Example 2, 1-(2-methoxyphenyl)-2-oxo-N-(4-phenoxyphenyl)-1,2-dihydropyridine-3-carboxamide] was 95%. To `Cc1cc(NC(=O)c2ccnn(-c3ccccc3OCC(F)F)c2=O)ccc1C(C)(C)O` [Example 142, 2-[2-(2,2-difluoroethoxy)phenyl]-N-[4-(2-hydroxypropan-2-yl)-3-methylphenyl]-3-oxo-2,3-dihydropyridazine-4-carboxamide] belongs 98%; to `O=C(Nc1ccc(C(O)(C(F)F)C(F)F)nc1)c1cn(C2CCOC2)nc(-c2ccccc2OCC(F)F)c1=O` (racemic) [Example 195, rac-6-[2-(2,2-difluoroethoxy)phenyl]-5-oxo-2-(oxolan-3-yl)-N-[6-(1,1,3,3-tetrafluoro-2-hydroxypropan-2-yl)pyridin-3-yl]-2,5-dihydropyridazine-4-carboxamide], 100%. To `COc1cc(C(C)(C)O)ccc1NC(=O)c1cc(C)nn(-c2ccccc2OCC(F)F)c1=O` [Example 151, 2-[2-(2,2-difluoroethoxy)phenyl]-N-[4-(2-hydroxypropan-2-yl)-2-methoxyphenyl]-6-methyl-3-oxo-2,3-dihydropyridazine-4-carboxamide] belongs 53%; to `CC(C)(O)c1ccc(NC(=O)c2cn(CC(F)F)nc(-c3ccccc3OCC(F)F)c2=O)cc1` [Example 179, 6-[2-(2,2-difluoroethoxy)phenyl]-2-(2,2-difluoroethyl)-N-[4-(2-hydroxypropan-2-yl)phenyl]-5-oxo-2,5-dihydropyridazine-4-carboxamide], 99%. Regarding `O=C(Nc1ccc(OCC(F)(F)F)nc1)c1cccn(-c2ccc(F)cc2N2CCOCC2)c1=O` [Example 25, 1-[4-fluoro-2-(morpholin-4-yl)phenyl]-2-oxo-N-[6-(2,2,2-trifluoroethoxy)pyridin-3-yl]-1,2-dihydropyridine-3-carboxamide], the inhibition at 10 µM is 81%.
